Legend:
Type in all cases: cell-based
[1] = tested on: Clavibacter michiganensis; assay: Growth inhibition assay at different concentrations of peptide rAp-S (specific growth rate, OD600); conditions: control 0.072
Description: (§1) Growth Inhibition Assays at Different Concentrations of Peptide rAp-S: The inoculation of 5 mL of LB was performed with 100 μL of bacteria (Xanthomona campestris and Clavibacter michiganensis), followed by overnight culturing. The absorbance was quantified at OD600. Once the Abs was quantified, dilutions were made to obtain an Abs to inoculate each tube with the same concentration of bacteria with an initial OD600 of 0.04. Different peptide concentrations were used. A final volume of 10 mL in a 50 mL tube was used. In addition, a control without peptide was used for each bacterium. The kinetics of the process was followed for 8 h from time zero, determining the Abs every 2 h. The data were logarithmically transformed for the exponential phase of kinetics, and a linear regression was performed on the transformed data. The slope of the regression is the specific growth rate of the bacteria: μ (h^−1).

Xanthomona campestris = assay: as above; conditions: control 0.385
Description: as §1

Trichoderma harzianum = assay: Antifungal growth assay on PDA agar supplemented with peptide (spore count, mycelium area); conditions: respectively
Description: (§2) a) Evaluation of Peptides obtained in E coli: Isolates from Botrytis cinerea, Fusarium oxysporum, Trichoderma harzianum and Alternaria spp. were treated with the purified fractions of the digested and non-digested peptides (pre-TEV/rAp-S and rAp-S) derived from the selected recombinant clone of E. coli (Example 3).
(§3) The potential antifungal abilities of both peptides were evaluated by analysis of the growth patterns of these fungi on agar PDA (potato-dextrose) in Petri dishes supplemented with protein extracts at 500 μg/L (162 nM) and 250 μg/L (81 nM), respectively.
(§4) The control growth assays were performed on PDA dishes without peptides. The growth patterns were evaluated according the amount of time required for the fungi to reach the dish walls in the control plates (10 days after inoculation in darkness at room temperature). Structural images of the fungi hyphae patterns were obtained using a Olympus® microscope (Center Valley, Pa., USA), and spores were counted using a Neubauer […] (Brand®, Wertheim, Germany) at 40×. The data were subjected to analyses of variance, and averages were separated by the least significant difference test (LSD) at the 5% level of significance using Statgraphics Centurion XV (Manμistics Inc., Rockville, Md., USA). Petri dishes containing grown fungi were scanned and digitalized for statistical processing. The area of the mycelia was quantified using Gel-Pro Analyzer 4.0 (Media Cybernetics, Minneapolis, Minn., USA), and surface values in pixels were transferred to Excel (Microsoft Corporation, USA) for analysis. The average value of the colored haloes was calculated using scanned images of five repetitions on the tenth day after inoculation. The collected data were subjected to variance analysis, and the averages separated by LSD at the 5% level of significance.

Botrytis cinerea = assay: as above; conditions: respectively
Description: as §2, §3, §4

Alternaria sp = assay: as above; conditions: respectively
Description: as §2, §3, §4

Fusarium oxysporum = assay: as above; conditions: respectively
Description: as §2, §3, §4

[2] = PDA supplemented with pre-TEV/rAp-S 500 μg/L (162 nM) and rAp-S 250 μg/L (81 nM), 10 days after inoculation
[3] = PDA supplemented with pre-TEV/rAp-S 500 μg/L and rAp-S 250 μg/L, tenth day after inoculation

## rAp-S: recombinant version of antimicrobial peptide Ap-S, 31 amino acids MPVGIVIAPKKSPFTAKKPGPVLSGVKAGPG (SEQ ID No. 9), released by TEV protease digestion (listed as Argopecten purpuratus)
[1]; peptide 1 μg/L
  Specific growth rate μ: 0.070 h⁻¹
[1]; peptide 10 μg/L
  Specific growth rate μ: 0.069 h⁻¹
[1]; peptide 100 μg/L
  Specific growth rate μ: 0.075 h⁻¹
[1]; peptide 1 mg/L
  Specific growth rate μ: 0.069 h⁻¹
[1]; peptide 2 mg/L
  Specific growth rate μ: 0.069 h⁻¹
[1]; peptide 3 mg/L
  Specific growth rate μ: 0.073 h⁻¹
[1]; peptide 4 mg/L
  Specific growth rate μ: 0.066 h⁻¹
[1]; peptide 12.5 mg/L
  Specific growth rate μ: 0.009 h⁻¹
[1]; peptide 15.5 mg/L
  Specific growth rate μ: 0.003 h⁻¹
Xanthomona campestris; peptide 1 μg/L
  Specific growth rate μ: 0.371 h⁻¹
Xanthomona campestris; peptide 10 μg/L
  Specific growth rate μ: 0.375 h⁻¹
Xanthomona campestris; peptide 100 μg/L
  Specific growth rate μ: 0.386 h⁻¹
Xanthomona campestris; peptide 1 mg/L
  Specific growth rate μ: 0.329 h⁻¹
Xanthomona campestris; peptide 2 mg/L
  Specific growth rate μ: 0.015 h⁻¹
Xanthomona campestris; peptide 3 mg/L
  Specific growth rate μ: -0.012 h⁻¹
Xanthomona campestris; peptide 4 mg/L
  Specific growth rate μ: -0.019 h⁻¹
Trichoderma harzianum; [2]
  Spore count, Average: 5.0 × 10^6
Trichoderma harzianum; [3]
  Central area of the mycelium, Average: 85718 pixeles
Botrytis cinerea; [2]
  Spore count, Average: 1.02 × 10^6
Botrytis cinerea; [3]
  Central area of the mycelium, Average: 170781 pixeles
Alternaria sp; [2]
  Spore count, Average: 0
Alternaria sp; [3]
  Central area of the mycelium, Average: 412403 pixeles
Fusarium oxysporum; [2]
  Spore count, Average: 7.6 × 10^5
Fusarium oxysporum; [3]
  Central area of the mycelium, Average: 511699 pixeles

From US10597430B2, “Chimeric gene for heterologous expression which encodes for peptides with antimicrobial activity” (Instituto de Investigaciones Agropecuarias, priority 2013, dated 2020)
